Data reported in patent US20110104664A1, “BIOMARKERS AND METHODS FOR DETERMINING SENSITIVITY TO MICORTUBULE-STABILIZING AGENTS” (Bristol-Myers Squibb Company, priority 2006, published 2011).

System: invasive stage IIA-IIIB breast adenocarcinoma
Test: CA163-080 phase II trial: pathologic complete response (pCR) in the breast after neoadjuvant ixabepilone, Sataloff classification
Assay type: in vivo, human
Protocol: CA163-080 (080 trial) is an exploratory genomic phase II study that was conducted in breast cancer patients who received ixabepilone as a neoadjuvant treatment. The primary objective of this study was to identify predictive markers of response to ixabepilone through gene expression profiling of pre-treatment breast cancer biopsies. Patients with invasive stage IIA-IIIB breast adenocarcinoma (tumor size ≧3 cm diameter) received 40 mg/m^2 ixabepilone as a 3-hour infusion on Day for up to four 21-day cycles, followed by surgery within 3-4 weeks of completion of chemotherapy. A total of 164 patients were enrolled in this study. Biopsies for gene expression analysis were obtained both pre- and post-treatment. Upon isolation of biopsies from the patients, samples were either snap frozen in liquid nitrogen or placed into RNAlater solution overnight, followed by removal from the RNAlater solution. All samples were kept at −70° C. until use.
Pathological response was assessed using the Sataloff classification system (D. Sataloff et al., J. Am. Coll. Surg., 180(3):297-306 (1995)) and used as an end point for the pharmacogenomic analysis. The pathologic response was evaluated in the primary tumor site at the end of treatment and prior to surgery by assessing histologic changes compared with baseline as following: At the primary tumor site, cellular modifications were evaluated in both the infiltrating tumoral component and in the possible ductal component, to determine viable residual infiltrating component (% of total tumoral mass); residual ductal component (% of total tumoral mass); the mitotic index. Pathologic Complete Response (pCR) in the breast only was defined as T-A, Total or near total therapeutic effect in primary site. […] The response rate was defined as the number of responders divided by the number of treated patients.
Based on the definition of Pathology Complete Response (pCR), there are 23 responders and 111 non-responders in the 080 trial. Estrogen receptor 1 (ER) was previously found to be the best single-gene predictor with negative prediction value (NPV) 92% and positive prediction value (PPV) 37%, as described in PCT Publication No. ______ (PCT Application No. PCT/US2005/043261).
The data were based on the 080 trial. Patients' ER and PR status were determined by IHC assay.

[1] = 134 patients of the genomic dataset, 080 trial
[2] = ER− group of the genomic dataset

C/C(=C\c1csc(C)n1)[C@@H]1C[C@@H]2O[C@]2(C)CCC[C@H](C)[C@H](O)[C@@H](C)C(=O)C(C)(C)[C@@H](O)CC(=O)N1 [ixabepilone]
number of non-responders (no pCR) [1]: 111
number of responders (pCR) [1]: 23
pCR response rate (ER+ PR+ patients (IHC), 080 trial): 4/62 = 6%
pCR response rate (ER+ PR− patients (IHC), 080 trial): 4/15 = 26.7%
pCR response rate (ER− PR+ patients (IHC), 080 trial): 0/9 = 0%
pCR response rate (ER− PR− patients (IHC), 40 mg/m^2 3-hour infusion, up to four 21-day cycles, 080 trial): 20/61 = 33%
number of non-responders (no pCR) [2]: 37
number of responders (pCR) [2]: 18
pCR response rate (all ER+ patients (IHC), 080 trial): 8/77 = 10.4%
pCR response rate (all ER− patients (IHC), 080 trial): 20/70 = 29%
pCR response rate (all PR+ patients (IHC), 080 trial): 4/71 = 5.6%
pCR response rate (all PR− patients (IHC), 080 trial): 24/76 = 31.5%
pCR response rate (overall, all patients with ER and PR status, 080 trial): Overall: 18%
